Experimental data published in publication PMC12028158, “Synthesis and In Vitro Evaluation of the Anticancer Effect of Novel Phosphonium Vindoline Derivatives” (International Journal of Molecular Sciences, 2025).

What was measured:
Format in all cases: cell-based
[1] = system: K-562; test: NCI60 one-dose screen; details: Homo sapiens, K562, read-out: Growth percent
[2] = system: RPMI-8226; test: NCI60 one-dose screen; details: Homo sapiens, RPMI-8226, read-out: Growth percent
[3] = system: OVCAR-5; test: NCI60 one-dose screen; details: Homo sapiens, OVCAR-5, read-out: Growth percent
[4] = system: COLO 205; test: NCI60 one-dose screen; details: Homo sapiens, COLO 205, read-out: Growth percent
[5] = system: UACC-257; test: NCI60 five-dose screen; details: Homo sapiens, UACC-257
[6] = system: 786-0; test: NCI60 five-dose screen; details: Homo sapiens, 786-0
[7] = system: HOP-92; test: NCI60 one-dose screen; details: Homo sapiens, HOP-92, read-out: Growth percent
[8] = system: PC-3; test: NCI60 five-dose screen; details: Homo sapiens, PC-3
[9] = system: CAKI-1; test: NCI60 five-dose screen; details: Homo sapiens, CAKI-1
[10] = system: 60 human tumor cell lines (NCI60); test: NCI60 five-dose screen, overall mean; details: 60 cell, read-out: Mean GI50, mean over all 60 cell lines
[11] = system: DU-145; test: NCI60 five-dose screen; details: Homo sapiens, DU-145
[12] = system: PC-3; test: NCI60 one-dose screen; details: Homo sapiens, PC-3, read-out: Growth percent
[13] = system: OVCAR-4; test: NCI60 five-dose screen; details: Homo sapiens, OVCAR-4
[14] = system: NCI-H23; test: NCI60 five-dose screen; details: Homo sapiens, NCI-H23
[15] = system: MOLT-4; test: NCI60 one-dose screen; details: Homo sapiens, MOLT-4, read-out: Growth percent
[16] = system: 60 human tumor cell lines (NCI60); test: NCI60 one-dose screen, overall mean; details: Homo sapiens, 60 cell, read-out: Mean growth percent
[17] = system: EKVX; test: NCI60 one-dose screen; details: Homo sapiens, read-out: Growth percent
[18] = system: MCF7; test: NCI60 five-dose screen; details: Homo sapiens, MCF7
[19] = system: SW-620; test: NCI60 one-dose screen; details: Homo sapiens, SW-620, read-out: Growth percent
[20] = system: LOX IMVI; test: NCI60 five-dose screen; details: Homo sapiens
[21] = system: SR; test: NCI60 five-dose screen; details: Homo sapiens
[22] = system: SW-620; test: NCI60 five-dose screen; details: Homo sapiens, SW-620
[23] = system: SN12C; test: NCI60 five-dose screen; details: Homo sapiens
[24] = system: NCI-H460; test: NCI60 five-dose screen; details: Homo sapiens, NCI-H460
[25] = system: HOP-62; test: NCI60 five-dose screen; details: Homo sapiens, HOP-62
[26] = system: UACC-257; test: NCI60 one-dose screen; details: Homo sapiens, UACC-257, read-out: Growth percent
[27] = system: Non-small Cell Lung Cancer panel; test: NCI60 five-dose screen, panel mean; details: Homo sapiens, read-out: Mean GI50
[28] = system: KM12; test: NCI60 five-dose screen; details: Homo sapiens, KM12
[29] = system: MDA-MB-435; test: NCI60 five-dose screen; details: Homo sapiens, MDA-MB-435
[30] = system: KM12; test: NCI60 one-dose screen; details: Homo sapiens, KM12, read-out: Growth percent
[31] = system: SK-MEL-5; test: NCI60 five-dose screen; details: Homo sapiens, SK-MEL-5
[32] = system: SF-539; test: NCI60 one-dose screen; details: Homo sapiens, SF-539, read-out: Growth percent
[33] = system: T-47D; test: NCI60 one-dose screen; details: Homo sapiens, T47D, read-out: Growth percent
[34] = system: Melanoma panel; test: NCI60 five-dose screen, panel mean; details: Homo sapiens, read-out: Mean GI50

SMILES | activity at 10 µM [1] [%] | activity at 10 µM [2] [%] | activity at 10 µM [3] [%] | activity at 10 µM [4] [%] | GI50 [5] [µM] | GI50 [6] [µM] | activity at 10 µM [7] [%] | GI50 [8] [µM] | GI50 [9] [µM] | GI50 [10] [µM] | GI50 [11] [µM] | activity at 10 µM [12] [%] | activity at 10 µM [15] [%] | activity at 10 µM [16] [%] | activity at 10 µM [17] [%] | activity at 10 µM [19] [%] | activity at 10 µM [26] [%] | activity at 10 µM [30] [%] | activity at 10 µM [32] [%] | activity at 10 µM [33] [%] | other results
CC[C@]12C=CCN3CC[C@@]4(c5ccc(OC)cc5N(C)[C@H]4[C@@](O)(C(=O)OC)[C@@H]1OC(=O)CCC[P+](c1ccc(F)cc1)(c1ccc(F)cc1)c1ccc(F)cc1)[C@@H]32 [9c] | 21.6 | 24.4 | 67 | -18.9 | 4.67 | > 48.5 | -6.2 | 12.6 | > 48.5 | 17 | 23.7 | 16.7 | 37.1 | 26.3 | 58.1 | 45.3 | -34.3 | 21.3 | 24.2 | 10.4 | GI50 [13]: 16.2 µM; GI50 [14]: 15.8 µM; GI50 [18]: 8.26 µM; GI50 [20]: 16.6 µM; GI50 [21]: 7.45 µM; GI50 [22]: 18.3 µM; GI50 [23]: 14.8 µM; GI50 [24]: 17 µM; GI50 [25]: 20.5 µM; GI50 [27]: 19.6 µM; GI50 [28]: 8.96 µM; GI50 [29]: 8.14 µM; GI50 [31]: 8.26 µM; GI50 [34]: 8.13 µM
CC[C@]12C=CCN3CC[C@@]4(c5ccc(OC)cc5N(C)[C@H]4[C@@](O)(C(=O)OC)[C@@H]1OC(=O)CCC[P+](C1CCCCC1)(C1CCCCC1)C1CCCCC1)[C@@H]32 [9d] | 3.31 | -43.5 | 11 | -63.6 | 1.26 | 4.45 | -43.8 | 1.71 | 16.4 | 3.8 | 3.75 | -12 | 2.35 | -32.7 | 15.4 | 3.91 | -80.9 | -63.4 | -86.5 | -1.81 | GI50 [13]: 2.39 µM; GI50 [14]: 2.31 µM; GI50 [18]: 1.19 µM; GI50 [20]: 2.88 µM; GI50 [21]: 1.35 µM; GI50 [22]: 2.95 µM; GI50 [23]: 2.89 µM; GI50 [24]: 2.77 µM; GI50 [25]: 3.68 µM; GI50 [27]: 3.67 µM; GI50 [28]: 1.63 µM; GI50 [29]: 1.83 µM; GI50 [31]: 1.76 µM; GI50 [34]: 1.7 µM
CCC12C=CCN3CC[C@@]4(c5ccc(OC)cc5N(C)[C@H]4[C@@](O)(C(=O)OC)[C@@H]1OC(C)=O)[C@@H]32 (stereo partly drawn) [compound 2, vindoline] | 103 | 101 | 91.2 |  |  |  | 84.2 |  |  |  |  | 88.3 | 103 | 100 | 102 | 104 | 98.7 | 102 | 104 | 95.7 | 
